Test [1] deals with T1, Coagulation factor X (Oryctolagus cuniculus) (UniProt O19045).
T1 sequence (whole entry): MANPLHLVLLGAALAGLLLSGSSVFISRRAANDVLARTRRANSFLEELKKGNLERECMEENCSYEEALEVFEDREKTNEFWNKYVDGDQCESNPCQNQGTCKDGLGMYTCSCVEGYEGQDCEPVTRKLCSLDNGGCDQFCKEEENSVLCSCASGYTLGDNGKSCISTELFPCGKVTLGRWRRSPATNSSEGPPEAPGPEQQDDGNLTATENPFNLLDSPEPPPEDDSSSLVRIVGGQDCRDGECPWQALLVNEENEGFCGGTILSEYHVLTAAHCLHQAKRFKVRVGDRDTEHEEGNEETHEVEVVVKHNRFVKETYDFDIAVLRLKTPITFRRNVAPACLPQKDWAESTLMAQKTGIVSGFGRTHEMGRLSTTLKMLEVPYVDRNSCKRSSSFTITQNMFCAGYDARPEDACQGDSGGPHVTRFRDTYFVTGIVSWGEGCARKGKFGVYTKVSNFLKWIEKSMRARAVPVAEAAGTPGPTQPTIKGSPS
Briefly: Inhibition of F10a in rabbit plasma assessed as ratio of compound prothrombin time to vehicle control prothrombin time at 100 nM after 2 mins by automatic coagulation analyser.

In test [2] the target is Coagulation factor X (Homo sapiens, UniProt P00742). The experiment in a line: Inhibition of human F10a using S-2765 as substrate preincubated for 10 mins followed by substrate addition by microplate reader analysis.
Coagulation factor X, sequence (P00742 41-179 limits assumed): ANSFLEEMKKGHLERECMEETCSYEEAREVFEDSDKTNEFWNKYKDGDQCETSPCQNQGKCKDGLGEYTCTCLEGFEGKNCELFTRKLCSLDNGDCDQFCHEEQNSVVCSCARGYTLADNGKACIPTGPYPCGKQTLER
Coagulation factor X, sequence (P00742 235-488 limits assumed): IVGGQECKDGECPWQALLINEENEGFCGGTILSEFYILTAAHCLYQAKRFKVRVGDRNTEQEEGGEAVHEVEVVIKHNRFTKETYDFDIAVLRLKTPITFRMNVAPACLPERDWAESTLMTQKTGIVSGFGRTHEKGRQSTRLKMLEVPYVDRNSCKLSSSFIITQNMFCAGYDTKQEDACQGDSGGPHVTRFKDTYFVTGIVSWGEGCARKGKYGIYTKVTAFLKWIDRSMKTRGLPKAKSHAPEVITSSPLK
For test [3], the target named is Prothrombin (Bos taurus, UniProt P00735). The experiment in a line: Inhibition of bovine plasma thrombin using S-2238 as substrate.
Test [4] has as its target Trypsin (Homo sapiens, UniProt P07477+P07478+P35030). Briefly: Inhibition of trypsin (unknown origin) using S-2222 as substrate. The format is protein assay.

A word on the IC50: it is the concentration that gives 50% inhibition. Low readings indicate inhibition by little substance, high ones a need for much substance.

In the case of `CCOC(=O)c1ccc(NC(=O)c2ccc(-n3ccccc3=O)cc2)c(NC(=O)c2cc(OC)c(OC)c(OC)c2)c1`, the Ratio in test [1] came out at 1.21.

As for `COc1ccc(C(=O)Nc2cc(C(N)=O)ccc2NC(=O)c2ccc(-n3ccccc3=O)cc2)cc1`, the Ratio in test [1] is 1.87.

As to `NC(=O)c1ccc(NC(=O)c2ccc(-n3ccccc3=O)cc2)c(NC(=O)c2ccc(NC=O)cc2)c1`, in test [1], the Ratio came to 1.54.

Consider `NC(=O)c1ccc(NC(=O)c2ccc(-n3ccccc3=O)cc2)c(NC(=O)c2ccc(Cl)cc2)c1`, for which the Ratio in test [1] was 1.88.

For `NC(=O)c1ccc(NC(=O)c2ccc(-n3ccccc3=O)cc2)c(NC(=O)c2ccc3ncoc3c2)c1`, the Ratio in test [1] worked out at 1.66.

For the compound `COc1cc(C(=O)Nc2ccc(C(N)=O)cc2NC(=O)c2ccc(-n3ccccc3=O)cc2)cc(OC)c1OC`, the Ratio in test [1] was found to be 1.07.

With `NC(=O)c1ccc(NC(=O)c2ccc(-n3ccccc3=O)cc2)c(NC(=O)c2ccc(Cl)s2)c1`, in test [1], the Ratio came out at 1.33.

`COc1ccc(C(=O)Nc2cc(C(N)=O)ccc2NC(=O)c2ccc(-n3ccccc3=O)cc2)cc1OC`: the IC50 in test [2] is 17.1 nM; in test [3], above 100000 nM; in test [4] it was above 100000 nM. For the same compound, in test [1], the Ratio is 1.94.

For the compound `COc1cc(C(=O)Nc2cc(C(=O)O)ccc2NC(=O)c2ccc(-n3ccccc3=O)cc2)cc(OC)c1OC`, the Ratio in test [1] turned out to be 1.15.

Turning to `NC(=O)c1ccc(NC(=O)c2ccc(-n3ccccc3=O)cc2)c(NC(=O)c2ccc(F)cc2)c1`, the Ratio in test [1] came to 1.27.

In turn, `NC(=O)c1ccc(NC(=O)c2ccc(-n3ccccc3=O)cc2)c(NC(=O)c2ccc(Br)cc2)c1` had an IC50 in test [2] of 25.9 nM.

As to `NC(=O)c1ccc(NC(=O)c2ccc(-n3ccccc3=O)cc2)c(NC(=O)c2ccc(Cl)nc2)c1`, the Ratio in test [1] was determined as 1.27.

In test [2], `COc1cc(C(=O)Nc2cc(C(N)=O)ccc2NC(=O)c2ccc(-n3ccccc3=O)cc2)cc(OC)c1OC` displayed an IC50 of 28.6 nM. The Ratio in test [1] was determined as 2.06.

For the compound `COc1cc(C(=O)Nc2cc(C(N)=O)ccc2NC(=O)c2ccc(N3CCCC3=O)cc2)cc(OC)c1OC`, the Ratio in test [1] is 1.27.

On to `COc1cc(C(=O)Nc2cc(C(N)=O)ccc2NC(=O)c2ccn(-c3ccccc3)c(=O)c2)cc(OC)c1OC`, for which, in test [1], the Ratio turned out to be 2.1.

In test [2], `CC(=O)Nc1ccc(C(=O)Nc2cc(C(N)=O)ccc2NC(=O)c2ccc(-n3ccccc3=O)cc2)cc1` came in with an IC50 of 15.6 nM. For the same compound, the Ratio in test [1] turned out to be 1.72.

Regarding `COc1cc(C(=O)Nc2cc(C(N)=O)ccc2NC(=O)c2ccc(N3CCCCC3=O)cc2)cc(OC)c1OC`, the Ratio in test [1] was found to be 1.16.

Compound `NC(=O)c1ccc(NC(=O)c2ccc(-n3ccccc3=O)cc2)c(NC(=O)c2ccc(Cl)c(Cl)c2)c1` displayed an IC50 in test [2] of 6.5 nM.

The values above are taken from ChEMBL document CHEMBL3612033, “Synthesis of 3,4-diaminobenzoyl derivatives as factor Xa inhibitors” (Eur J Med Chem, 2015).
